Values after ≈ are worked out from the molar mass of the structure shown. Where two headings read alike, the source gives them in different places.
What was measured:
Solubility = type: physicochemical
hNCX1 = hNCX1 (Homo sapiens, UniProt P32418); assay: Confirmatory fluorescence assay for hNCX1 inhibition (forward mode, HEK293 cells, Charles River); type: cell-based; settings: HEK293, forward mode
Experimental: A confirmatory hNCX1 inhibition assay was performed in Charles River Laboratories, Cleveland. Briefly, HEK293 cells stably expressing hNCX1 were plated in 384‐well black wall, clear‐bottom microtitre plates and the next day loaded with Fluo‐8 for 30 min at 37°C. A plate was inserted into a FLIPR^TETRA, and a baseline was recorded during a preincubation period where test compound or vehicle in a Na^+‐free HB‐PS containing thapsigargin (6 μM) and […] (30 μM) was added to each well for ~5 min. Next, the NCX1 stimulation period was recorded in which Na^+‐containing HB‐PS (with 2‐μM thapsigargin and 10‐μM FCCP) was added. The experiments were performed at room temperature. The kinetic data generated were reduced for each well to maximum relative fluorescence units (RFU) minus minimum RFU after subtracting bias based on the first sample. The mean of the max–min RFU values during the stimulation period for the 3–4 replicates at each concentration on a plate was then plotted versus concentration and fitted to a Hill equation.

[1] = tested on: human ventricular trabeculae
L‐type calcium channel = L‐type calcium channel inhibition, fluorescence assay in IMR‐32 cells; type: cell-based, human; settings: KCl depolarization, n=4 assays, read-out: L‐type Ca^2+ IC50
Experimental: CHO cells stably expressing either hERG1a (KV11.1) channels (KCNH2; RRID:CVCL_H512) or human 5‐HT2B receptors were cultured at 37°C in a 5% CO2/95% air atmosphere in the Ham's Nutrient Mixture F‐12 (HAM F‐12) medium supplemented with 10% FBS (heat inactivated), 100 μg·ml^−1 of hygromycin B (Invitrogen), and 100 μg·ml^−1 of geneticin or 100 IU·ml^−1 of penicillin and 100 IU·ml^−1 of streptomycin, 25‐mM HEPES, 500 μg·ml^−1 of geneticin, and 250 μg·ml^−1 of Zeocin®. Adhered cells were detached using either Detachin® solution or trypsin and replated twice a week. HEK 293 (RRID:CVCL_0045) and IMR‐32 cells (CCL‐127; RRID:CVCL_0346) were cultured similarly but maintained instead in DMEM, supplemented with 10% FBS (heat inactivated), 100 IU·ml^−1 of penicillin and 100 IU·ml^−1 of streptomycin, and 25‐mM HEPES, and in the case of the IMR‐32 cell line, with minimum essential medium (MEM) non‐essential amino acids. IMR‐32 cells are derived from a human neuroblastoma and endogenously express L‐type (CaV1.x) calcium channel (Sher, Gotti, Pandiella, Madeddu, & Clementi, 1988).
Undifferentiated IMR‐32 cells were harvested, centrifuged, and resuspended in a probenecid‐Ringer solution consisting (in mM) 150 NaCl, 3 KCl, 1.2 MgCl2, 1 CaCl2, 20 HEPES, 5 glucose and 2.5 probenecid (pH 7.4 adjusted with NaOH, osmolarity 320–324 mOsm). We added 0.04% Pluronic F‐127 and Fluo‐4 to this solution, and after incubating the cells for 30 min at room temperature, these additives were removed from the probenecid‐Ringer solution by centrifugation and resuspension. The cell suspension was pipetted (250,000 cells in 75 μl per well) into a 96‐well plate, into which the test compound (75 μl per well at […] the final concentration; five concentrations with eight replicates) had already been added. The plate was centrifuged once (5 min, at 287 x g) to ensure that the cells were moved to the bottom of the wells. FLEXstation was then used to measure the increase in intracellular calcium at 37°C, following depolarization, which was induced by the addition (50 μl per well) of a KCl‐Ringer solution containing (in mM) 200 KCl, 20 CaCl2, 1.2 MgCl2, 20 HEPES and 2.5 probenecid respectively (pH adjusted to 7.4 with KOH, with an osmolarity of 320–324 mOsm).

hERG = hERG (Homo sapiens, UniProt Q12809); assay: hERG IC50 of Table 1 / Table S2 (method not assigned); type: cell-based; settings: n=4 assays
Chain of hERG (Q12809 whole entry): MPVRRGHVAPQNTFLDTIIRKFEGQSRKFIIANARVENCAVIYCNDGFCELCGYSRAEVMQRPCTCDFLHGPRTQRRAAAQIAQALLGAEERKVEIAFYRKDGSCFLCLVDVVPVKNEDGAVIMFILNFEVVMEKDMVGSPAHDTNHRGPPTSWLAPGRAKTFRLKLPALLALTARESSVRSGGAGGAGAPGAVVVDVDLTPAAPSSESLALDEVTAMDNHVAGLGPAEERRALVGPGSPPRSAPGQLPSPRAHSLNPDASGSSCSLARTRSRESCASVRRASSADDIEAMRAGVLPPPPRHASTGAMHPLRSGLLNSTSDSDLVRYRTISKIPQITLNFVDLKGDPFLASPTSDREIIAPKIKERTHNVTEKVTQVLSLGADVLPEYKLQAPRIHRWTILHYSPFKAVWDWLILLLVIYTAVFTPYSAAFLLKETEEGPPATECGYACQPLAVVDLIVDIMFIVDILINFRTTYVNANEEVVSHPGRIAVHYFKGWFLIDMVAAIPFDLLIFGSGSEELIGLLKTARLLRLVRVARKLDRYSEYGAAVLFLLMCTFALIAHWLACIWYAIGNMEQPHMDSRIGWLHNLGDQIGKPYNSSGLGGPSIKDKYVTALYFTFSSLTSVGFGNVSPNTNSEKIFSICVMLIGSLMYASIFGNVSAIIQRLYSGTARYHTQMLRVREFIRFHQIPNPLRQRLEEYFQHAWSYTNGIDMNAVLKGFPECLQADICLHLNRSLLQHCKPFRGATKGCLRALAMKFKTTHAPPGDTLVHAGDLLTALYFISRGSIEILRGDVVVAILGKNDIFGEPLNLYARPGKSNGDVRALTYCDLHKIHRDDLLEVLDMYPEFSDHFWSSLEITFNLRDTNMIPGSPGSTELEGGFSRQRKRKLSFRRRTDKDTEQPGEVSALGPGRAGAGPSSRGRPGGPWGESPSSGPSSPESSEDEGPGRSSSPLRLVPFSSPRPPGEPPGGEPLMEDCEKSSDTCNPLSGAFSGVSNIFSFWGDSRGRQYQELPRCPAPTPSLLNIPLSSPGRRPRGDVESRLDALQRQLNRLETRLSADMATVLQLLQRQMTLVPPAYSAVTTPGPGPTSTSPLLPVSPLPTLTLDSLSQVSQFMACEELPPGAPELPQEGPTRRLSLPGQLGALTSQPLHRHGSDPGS

[2] = Table S2, read-out: hNCX1-HEK IC50

IC50 (L‐type calcium channel) [µM] | solubility (Solubility; pH 7.4 phosphate buffer) | Solubility class (Solubility; pH 7.4 phosphate buffer, listed as SEA 0400) | IC50 (hNCX1; [2]) [µM] | Compound | solubility (Solubility; 5% glucose solution, saline or isotonic, 5% glucose used for in vivo dosing, read-out: Solubility in 5% glucose solution) [µg/mL] | solubility (Solubility; phosphate buffer, pH 7.4, aqueous buffer, pH 7.4 phosphate buffer, read-out: Solubility) [µg/mL] | solubility (Solubility; phosphate buffer, pH 7.4, aqueous buffer, pH 7.4 phosphate buffer, read-out: Solubility class) [µg/mL] | solubility (Solubility; saline, saline or isotonic, saline used for in vivo dosing, read-out: Solubility in saline) [µg/mL] | IC50 (hNCX1; 0.3% DMSO, read-out: IC50 hNCX1 calcium efflux signal) [µM] | IC50 (hNCX1; 1% DMSO, read-out: IC50 hNCX1 calcium efflux signal) [µM] | STV and triangulation (pro‐arrhythmia markers) ([1]; 1 or 2 Hz, ORM‐11372 any tested concentration, dofetilide 0.1 μM (positive control)) | APD30, APD50 and APD90 ([1]; up to 10 μM, 1‐ and 2‐Hz pacing) | IC50 (hERG) [µM] | Solubility class (Solubility; pH 7.4 phosphate buffer)
3.4 | less than 10 μg·ml^−1 | Insoluble (insoluble less than 10 µg/ml) | 2.21 | CCOc1ccc(Oc2ccc(OCc3cc(F)ccc3F)cc2)c(N)c1 [SEA0400, reference compound] |  |  |  |  |  |  |  |  | 2.8 | insoluble
11.4 |  |  | 0.63 | O=C(CN1CCC(O)CC1)Nc1ccc(Oc2ccc3c(c2)CCC(c2ccccc2)O3)nc1 (centres unmarked) [ORM-10962] |  |  |  |  |  |  |  |  | 3.4 | Moderate (moderate solubility between 10-100 µg/ml)

Compound | IC50 (L‐type calcium channel) [µM] | solubility (Solubility; pH 7.4 phosphate buffer) | Solubility class (Solubility; pH 7.4 phosphate buffer, listed as SEA 0400) | IC50 (hNCX1; [2]) [µM] | solubility (Solubility; 5% glucose solution, saline or isotonic, 5% glucose used for in vivo dosing, read-out: Solubility in 5% glucose solution) [µg/mL] | solubility (Solubility; phosphate buffer, pH 7.4, aqueous buffer, pH 7.4 phosphate buffer, read-out: Solubility) [µg/mL] | solubility (Solubility; phosphate buffer, pH 7.4, aqueous buffer, pH 7.4 phosphate buffer, read-out: Solubility class) [µg/mL] | solubility (Solubility; saline, saline or isotonic, saline used for in vivo dosing, read-out: Solubility in saline) [µg/mL] | IC50 (hNCX1; 0.3% DMSO, read-out: IC50 hNCX1 calcium efflux signal) [µM] | IC50 (hNCX1; 1% DMSO, read-out: IC50 hNCX1 calcium efflux signal) [µM] | STV and triangulation (pro‐arrhythmia markers) ([1]; 1 or 2 Hz, ORM‐11372 any tested concentration, dofetilide 0.1 μM (positive control)) | APD30, APD50 and APD90 ([1]; up to 10 μM, 1‐ and 2‐Hz pacing) | IC50 (hERG) [µM] | Solubility class (Solubility; pH 7.4 phosphate buffer)
Nc1cccc(-c2ccc(CNc3ccc(F)cc3)o2)c1 [ORM‐11372] | 6.1 |  |  |  | 5400 (≈ 19.1 mM) | 10 to 100 (≈ 0.0354 to 0.354 mM) | 10 to 100 (≈ 0.0354 to 0.354 mM) | 5300 (≈ 18.8 mM) | 0.142 | 0.164 | no effects | no significant changes | 10.6 | 
